Data: US10328093B2, “Anthracycline formulations” (CYTRX CORPORATION, priority 2012, dated 2019)
Values joined by “and” are separate entries in the source; they are usually repeats but may differ in a detail not shown here. Identical values can stand only once.

Key:
[1] = Solubility and stability of lyophilized DOXO-EMCH reconstituted in diluents at 10 mg/mL; type: physicochemical; conditions: for pH: ambient conditions
Experimental: (§1) To analyze DOXO-EMCH's behavior in solution, a reversed-phase (RP) HPLC method for quantitation of DOXO-EMCH and various impurities and degradation products was utilized. Samples (1.0 μL injection volume) were assayed on an HPLC system fitted with a Phenomenex Gemini C18 column 100×2.0 mm, 3 μm at a flow rate of 0.3 mL/min. The mobile phase used was an acetate/acetonitrile gradient. The degradation product EMCH could not be detected using the above HPLC method, and was therefore determined using a liquid chromatography-mass spectrometry (LC-MS) method.
Having established preliminary information on DOXO-EMCH's properties when dissolved in NS, LR, and D5W, a follow-up study was designed to evaluate (1) the solubility and stability of DOXO-EMCH in selected diluents upon reconstitution and (2) the subsequent stability of various IV Admixtures. Diluents included Sterile Water for Injection (SWFI), Lactated Ringers Solution (LR), and 50% (v/v) ethanol/SWFI.
The study evaluating solubility and stability of lyophilized DOXO-EMCH reconstituted in SWFI, LR, and 50% (v/v) ethanol/SWFI was conducted using a target DOXO-EMCH concentration of 10 mg/mL. To obtain a 10 mg/mL concentration, 20 mL of diluent was added to a vial containing 200 mg of lyophilized DOXO-EMCH, and the vial was gently swirled to dissolve the contents and obtain a homogeneous mixture. The sample was mixed and visually inspected for complete reconstitution to a clear solution for a) approximately 30 seconds, b) approximately 60 seconds, and c) 120 seconds, then up to a total of 10 minutes. If more than 120 seconds were required for visual clarity, the vial may have been intermittently swirled up to a maximum of 10 minutes. Duplicate vials were prepared for each study. Each vial was assessed 10 minutes and 20 minutes after the addition of reconstitution diluent for visual appearance of the reconstituted solution and sampled at these time points for determination of DOXO-EMCH content, doxorubicin content, and solution pH. If a given diluent was determined to provide acceptable solubilization and stability of the vial contents after 20 minutes at ambient conditions, the diluent proceeded directly to part 2 of the study.
The reconstituted solution was evaluated for color, clarity, and absence of insoluble material in the vial after every 30 seconds of mixing. Following addition of the reconstituted drug product solution to the IV bag, the resulting IV Admixture was evaluated for color, clarity, and absence of any insoluble material immediately after mixing and at each analytical time point. The amount (area %) of the degradation product doxorubicin was determined at each time point.

[2] = IV bag solution stability study of DOXO-EMCH API (0.9% NaCl, D5W, LR); type: physicochemical; conditions: for solubility: ~2 mg/mL
Experimental: as §1
To obtain baseline data on the stability of DOXO-EMCH at the point of use, a study was designed to determine degradation of DOXO-EMCH when combined with candidate intravenous (IV) bag solutions. IV bag solutions including Dextrose 5% in Water (D5W), Lactated Ringers (LR), and Sodium Chloride Solution 0.9% (Normal Saline; NS) were used. 100 mg of DOXO-EMCH active pharmaceutical ingredient (API) were dissolved in 50 mL of the IV bag solution for a concentration of ˜2 mg/mL DOXO-EMCH API. The IV bag solutions containing API were then aliquoted in glass vials. The vials were stored at 25° C. in a stability chamber for the length of the experiment. Prior to the beginning of the IV bag stability study, all IV bag solutions were tested for pH and the presence of any peaks interfering with DOXO-EMCH or any degradation peaks of interest. Samples were pulled at 0 hr, 2 hr, 4 hr, and 6 hr time intervals and tested for pH and in duplicate by HPLC.
Tables 8-10 below list the results for the IV bag study using 0.9% NaCl, D5W, and Lactated Ringer's Solution. In summary, the 0.9% NaCl and Lactated Ringer's solutions met the goal of less than 3% doxorubicin over 3-5 hours. […] The sample was opaque and precipitated material visibly settled over a 2-hour period. […] The samples were mixed well before dilution of each sample for HPLC assay, but non-homogeneity of these samples is reflected in the DOXO-EMCH recovery values for those two IV bag solutions. […] The pH for D5W was the lowest of all the IV bag solutions tested.

[3] = Stability of DOXO-EMCH in DI water with manual pH adjustment (RP-HPLC); type: physicochemical; conditions: for DOXO-EMCH / Doxorubicin: ~2.0 mg/mL in DI Water, manual pH adjustment to pH ~6.1 at 30 minute intervals
Experimental: as §1
An additional study was performed to obtain data on the stability of DOXO-EMCH dissolved in DI water with manual pH adjustment. The initial pH of the DOXO-EMCH solution (˜2.0 mg/mL) dissolved in DI Water was 5.4. At 30 minute intervals, the pH of the DOXO-EMCH solution was checked and adjusted to pH ˜6.1 by the dropwise addition of a 0.1 N NaOH solution.

[4] = test system: advanced cancer patients; conditions: Phase 1, 41 advanced cancer patients, cited from earlier work
[5] = ~2 mg/mL API in 0.9% NaCl IV solution, 25° C., 0 hr
[6] = ~2 mg/mL API in 0.9% NaCl IV solution, 25° C., 2 hr
[7] = ~2 mg/mL API in 0.9% NaCl IV solution, 25° C., 4 hr
[8] = ~2 mg/mL API in 0.9% NaCl IV solution, 25° C., 6 hr
[9] = ~2 mg/mL API in D5W IV solution, 25° C., 0 hr
[10] = ~2 mg/mL API in D5W IV solution, 25° C., 2 hr
[11] = ~2 mg/mL API in D5W IV solution, 25° C., 4 hr
[12] = ~2 mg/mL API in D5W IV solution, 25° C., 6 hr
[13] = ~2 mg/mL API in LR IV solution, 25° C., 0 hr
[14] = ~2 mg/mL API in LR IV solution, 25° C., 2 hr
[15] = ~2 mg/mL API in LR IV solution, 25° C., 4 hr
[16] = ~2 mg/mL API in LR IV solution, 25° C., 6 hr

## COc1cccc2c1C(=O)c1c(O)c3c(c(O)c1C2=O)C[C@@](O)(/C(CO)=N/NC(=O)CCCCCN1C(=O)C=CC1=O)C[C@@H]3O[C@H]1C[C@H](N)[C@H](O)[C@H](C)O1.Cl [DOXO-EMCH]
[1]; in ethanol:water
  solubility: completely soluble
  time to go into solution: within less than a minute
[1]; reconstituted in 50:50 ethanol:water at 10 mg/mL
  mixing time until solutions appeared visually clear: 120 s
[1]; reconstituted in 50:50 ethanol:water at 10 mg/mL, 10 minutes
  pH: 5.9
[1]; reconstituted in 50:50 ethanol:water at 10 mg/mL, 20 minutes
  pH: 5.7 and 5.8
[1]; reconstituted in LR at 10 mg/mL
  mixing time until solutions appeared visually clear: 120 s
[1]; reconstituted in LR at 10 mg/mL, 10 minutes
  pH: 6.0 and 5.9
[1]; reconstituted in LR at 10 mg/mL, 20 minutes
  pH: 5.9 and 5.8
[1]; reconstituted in SWFI at 10 mg/mL, 10 minutes
  pH: 5.4 and 5.3
[1]; reconstituted in SWFI at 10 mg/mL, 20 minutes
  pH: 5.1 and 5.5
[1]; reconstituted in SWFI at 10 mg/mL, a few undissolved particles remained
  mixing time until solutions appeared visually clear: 90 to 120 s
[2]; 0.9% NaCl IV solution, 25° C.
  doxorubicin over 3-5 hours (goal): less than 3%
[2]; D5W solution, 25° C.
  degradation over a 6 hour period: significant degradation of DOXO-EMCH and formation of doxorubicin
[2]; Lactated Ringer's solution, 25° C.
  doxorubicin over 3-5 hours (goal): less than 3%
[2]; in 0.9% NaCl
  solubility: not completely soluble
[2]; in D5W
  solubility: completely soluble
[2]; in Lactated Ringer's
  solubility: not completely soluble
[2]; [5]
  Doxorubicin: 0.3 wt %
  pH: 6.5
[2]; [6]
  Doxorubicin: 0.9 wt %
  pH: 6.0
[2]; [7]
  Doxorubicin: 2.1 wt %
  pH: 5.6
[2]; [8]
  Doxorubicin: 2.6 wt %
  pH: 5.7
[2]; [9]
  Doxorubicin: 1.6 wt %
  pH: 5.5
[2]; [10]
  Doxorubicin: 5.8 wt %
  pH: 5.0
[2]; [11]
  Doxorubicin: 11.2 wt %
  pH: 4.9
[2]; [12]
  Doxorubicin: 16.8 wt %
  pH: 4.8
[2]; [13]
  Doxorubicin: 0.2 wt %
  pH: 6.3
[2]; [14]
  Doxorubicin: 0.5 wt %
  pH: 6.1
[2]; [15]
  Doxorubicin: 0.9 wt %
  pH: 6.0
[2]; [16]
  Doxorubicin: 1.6 wt %
  pH: 5.9
[3]; ~2.0 mg/mL dissolved in DI Water, before adjustment
  initial pH of the DOXO-EMCH solution: 5.4
[3]; 0 hr
  DOXO-EMCH: 98.8 wt %
  Doxorubicin: 0.5 wt %
[3]; 2 hr
  DOXO-EMCH: 91.8 wt %
  Doxorubicin: 2.4 wt %
[3]; 4 hr
  DOXO-EMCH: 85.6 wt %
  Doxorubicin: 3.6 wt %
[3]; 6 hr
  DOXO-EMCH: 80.6 wt %
  Doxorubicin: 4.3 wt %
[4]; in some cases
  tumor response: induced tumor regression
[4]
  clinical safety: safe for clinical use
